The target of this assay is T1, Bile acid receptor (Homo sapiens, UniProt Q96RI1).
T1 sequence (Q96RI1 whole entry): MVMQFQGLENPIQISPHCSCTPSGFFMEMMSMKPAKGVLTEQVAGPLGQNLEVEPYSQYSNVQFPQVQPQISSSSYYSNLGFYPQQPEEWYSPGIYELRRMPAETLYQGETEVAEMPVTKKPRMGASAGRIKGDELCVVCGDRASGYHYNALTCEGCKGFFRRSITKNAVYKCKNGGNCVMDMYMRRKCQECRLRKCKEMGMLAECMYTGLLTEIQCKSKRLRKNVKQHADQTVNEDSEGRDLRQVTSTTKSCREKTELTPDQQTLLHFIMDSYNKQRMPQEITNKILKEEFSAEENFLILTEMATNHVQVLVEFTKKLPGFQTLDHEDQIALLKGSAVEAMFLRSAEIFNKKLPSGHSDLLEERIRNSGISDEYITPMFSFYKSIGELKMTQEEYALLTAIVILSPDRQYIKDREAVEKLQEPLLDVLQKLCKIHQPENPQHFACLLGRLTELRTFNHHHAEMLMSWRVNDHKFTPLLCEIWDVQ
In words: FXR Reporter Assay kit purchased from Indigo Bioscience (Catalogue number: IB00601) to determine the potency and efficacy of compound developed by Enanta that can induce FXR activation. The principle application of this reporter assay system is to quantify functional activity of human FXR. The assay utilizes non-human mammalian cells, CHO (Chinese hamster ovary) cells engineered to express human NR1H4 protein (referred to as FXR). Reporter cells also incorporate the cDNA encoding beetle luciferase which catalyzes the substrates and yields photon emission. Luminescence intensity of the reaction is quantified using a plate-reading luminometer, Envision. Reporter Cells include the luciferase reporter gene functionally linked to an FXR responsive promoter. Thus, quantifying changes in luciferase expression in the treated reporter cells provides a sensitive surrogate measure of the changes in FXR activity. […] The assay is according to the manufacturer's instructions. In brief, the assay was performed in white, 96 well plates using final volume of 100 μl containing cells with different doses of compounds. Retrieve Reporter Cells from −80° C. storage. Perform a rapid thaw of the frozen cells by transferring a 10 ml volume of 37° C. cell recovery medium into the tube of frozen cells. Recap the tube of Reporter Cells and immediately place it in a 37° C. water bath for 5-10 minutes. […]. It is filed as cell-based. On the technique in general: In a reporter assay the amount or activity of a reporter protein is the signal.

Consider one compound from ChEMBL document CHEMBL5725943, “Isoxazole derivatives as FXR agonists and methods of use therof” (2018).

Structures are written as SMILES. A value given as a limit tells only on which side of the number the result lay.

For orientation: EC50 means the midpoint of the concentration-response curve. Turning to `CN(Cc1ccc(C(=O)NS(=O)(=O)N(C)C)cc1)c1ccc(OCc2c(-c3c(Cl)cccc3Cl)noc2C2CC2)nc1C(F)(F)F`, the EC50 is less than 100 nM.
